{
  "source": "the supplement of paper PMC10307832",
  "assay_in_all_cases": "relative viability (nuclei count vs DMSO), 5 days (fraction); higher = more cells survive",
  "key": {"[1]": {"system": "201T", "procedure,_shortened": "(§1)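 Relative viability divides the nuclei count in treated wells by that in vehicle wells. Lung cancer cell lines were seeded in 1536-well plates, dosed by pin tool the next day, and fixed and stained after 5 days in one step with final 0.05% Triton X-100, 1% formaldehyde and 1 ug/ml Hoechst. Dosing was a single drug or a fixed anchor-drug dose plus five library-drug doses (not always all listed) in √10 steps, and values are medians of duplicate plates imaged at 4×.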"}, "[2]": {"system": "A-427", "procedure,_shortened": "as §1"}, "[3]": {"system": "BEN", "procedure,_shortened": "as §1"}, "[4]": {"system": "COR-L23", "procedure,_shortened": "as §1"}, "[5]": {"system": "EKVX", "procedure,_shortened": "as §1"}, "[6]": {"system": "HARA", "procedure,_shortened": "as §1"}, "[7]": {"system": "HCC-15", "procedure,_shortened": "as §1"}, "[8]": {"system": "HCC-44", "procedure,_shortened": "as §1"}, "[9]": {"system": "HCC-827", "procedure,_shortened": "as §1"}, "[10]": {"system": "NCI-H1437", "procedure,_shortened": "as §1"}, "[11]": {"system": "NCI-H1650", "procedure,_shortened": "as §1"}, "[12]": {"system": "NCI-H1666", "procedure,_shortened": "as §1"}, "[13]": {"system": "NCI-H1792", "procedure,_shortened": "as §1"}, "[14]": {"system": "NCI-H1975", "procedure,_shortened": "as §1"}, "[15]": {"system": "NCI-H23", "procedure,_shortened": "as §1"}, "[16]": {"system": "NCI-H441", "procedure,_shortened": "as §1"}, "[17]": {"system": "NCI-H596", "procedure,_shortened": "as §1"}, "[18]": {"system": "NCI-H838", "procedure,_shortened": "as §1"}, "[19]": {"system": "SK-MES-1", "procedure,_shortened": "as §1"}},
  "data": [
    {"compound": "CCN(CC)CCCCNc1ncc2cc(-c3cc(OC)cc(OC)c3)c(NC(=O)NC(C)(C)C)nc2n1", "note": "+ CC1(C)CCC(c2ccc(Cl)cc2)=C(CN2CCN(c3ccc(C(=O)NS(=O)(=O)c4ccc(N[C@H](CCN5CCOCC5)CSc5ccccc5)c(S(=O)(=O)C(F)(F)F)c4)cc3)CC2)C1 [Navitoclax] (partner 0.5 µM)", "values": [
      {"measurement": "relative viability", "setting": "[1]; first compound 0.01 µM", "value": 1.17},
      {"measurement": "relative viability", "setting": "[1]; first compound 0.03162 µM", "value": 1.21},
      {"measurement": "relative viability", "setting": "[1]; first compound 0.1 µM", "value": 1.24},
      {"measurement": "relative viability", "setting": "[1]; first compound 0.3162 µM", "value": 1.23},
      {"measurement": "relative viability", "setting": "[1]; first compound 1 µM", "value": 1.19},
      {"measurement": "relative viability", "setting": "[2]; first compound 0.01 µM", "value": 0.991},
      {"measurement": "relative viability", "setting": "[2]; first compound 0.03162 µM", "value": 1.03},
      {"measurement": "relative viability", "setting": "[2]; first compound 0.1 µM", "value": 1.11},
      {"measurement": "relative viability", "setting": "[2]; first compound 0.3162 µM", "value": 1.08},
      {"measurement": "relative viability", "setting": "[2]; first compound 1 µM", "value": 0.908},
      {"measurement": "relative viability", "setting": "[3]; first compound 0.01 µM", "value": 0.0624},
      {"measurement": "relative viability", "setting": "[3]; first compound 0.03162 µM", "value": 0.0641},
      {"measurement": "relative viability", "setting": "[3]; first compound 0.1 µM", "value": 0.0454},
      {"measurement": "relative viability", "setting": "[3]; first compound 0.3162 µM", "value": 0.0573},
      {"measurement": "relative viability", "setting": "[3]; first compound 1 µM", "value": 0.0385},
      {"measurement": "relative viability", "setting": "[4]; first compound 0.01 µM", "value": 1.14},
      {"measurement": "relative viability", "setting": "[4]; first compound 0.03162 µM", "value": 1.12},
      {"measurement": "relative viability", "setting": "[4]; first compound 0.1 µM", "value": 1.33},
      {"measurement": "relative viability", "setting": "[4]; first compound 0.3162 µM", "value": 1.18},
      {"measurement": "relative viability", "setting": "[4]; first compound 1 µM", "value": 1.12},
      {"measurement": "relative viability", "setting": "[5]; first compound 0.01 µM", "value": 0.946},
      {"measurement": "relative viability", "setting": "[5]; first compound 0.03162 µM", "value": 0.851},
      {"measurement": "relative viability", "setting": "[5]; first compound 0.1 µM", "value": 1.01},
      {"measurement": "relative viability", "setting": "[5]; first compound 0.3162 µM", "value": 1.04},
      {"measurement": "relative viability", "setting": "[5]; first compound 1 µM", "value": 0.968},
      {"measurement": "relative viability", "setting": "[6]; first compound 0.01 µM", "value": 1.19},
      {"measurement": "relative viability", "setting": "[6]; first compound 0.03162 µM", "value": 1.15},
      {"measurement": "relative viability", "setting": "[6]; first compound 0.1 µM", "value": 1.29},
      {"measurement": "relative viability", "setting": "[6]; first compound 0.3162 µM", "value": 1.14},
      {"measurement": "relative viability", "setting": "[6]; first compound 1 µM", "value": 1.04},
      {"measurement": "relative viability", "setting": "[7]; first compound 0.01 µM", "value": 0.748},
      {"measurement": "relative viability", "setting": "[7]; first compound 0.03162 µM", "value": 0.724},
      {"measurement": "relative viability", "setting": "[7]; first compound 0.1 µM", "value": 0.859},
      {"measurement": "relative viability", "setting": "[7]; first compound 0.3162 µM", "value": 0.784},
      {"measurement": "relative viability", "setting": "[7]; first compound 1 µM", "value": 0.7},
      {"measurement": "relative viability", "setting": "[8]; first compound 0.01 µM", "value": 1.01},
      {"measurement": "relative viability", "setting": "[8]; first compound 0.03162 µM", "value": 0.997},
      {"measurement": "relative viability", "setting": "[8]; first compound 0.1 µM", "value": 1.02},
      {"measurement": "relative viability", "setting": "[8]; first compound 0.3162 µM", "value": 1.1},
      {"measurement": "relative viability", "setting": "[8]; first compound 1 µM", "value": 0.937},
      {"measurement": "relative viability", "setting": "[9]; first compound 0.01 µM", "value": 1.06},
      {"measurement": "relative viability", "setting": "[9]; first compound 0.03162 µM", "value": 0.981},
      {"measurement": "relative viability", "setting": "[9]; first compound 0.1 µM", "value": 1.05},
      {"measurement": "relative viability", "setting": "[9]; first compound 0.3162 µM", "value": 0.993},
      {"measurement": "relative viability", "setting": "[9]; first compound 1 µM", "value": 1.02},
      {"measurement": "relative viability", "setting": "[10]; first compound 0.01 µM", "value": 1.11},
      {"measurement": "relative viability", "setting": "[10]; first compound 0.03162 µM", "value": 1.1},
      {"measurement": "relative viability", "setting": "[10]; first compound 0.1 µM", "value": 1.35},
      {"measurement": "relative viability", "setting": "[10]; first compound 0.3162 µM", "value": 1.22},
      {"measurement": "relative viability", "setting": "[10]; first compound 1 µM", "value": 1.04},
      {"measurement": "relative viability", "setting": "[11]; first compound 0.01 µM", "value": 1.12},
      {"measurement": "relative viability", "setting": "[11]; first compound 0.03162 µM", "value": 1.03},
      {"measurement": "relative viability", "setting": "[11]; first compound 0.1 µM", "value": 1.17},
      {"measurement": "relative viability", "setting": "[11]; first compound 0.3162 µM", "value": 0.784},
      {"measurement": "relative viability", "setting": "[11]; first compound 1 µM", "value": 0.7},
      {"measurement": "relative viability", "setting": "[12]; first compound 0.01 µM", "value": 1.03},
      {"measurement": "relative viability", "setting": "[12]; first compound 0.03162 µM", "value": 1.02},
      {"measurement": "relative viability", "setting": "[12]; first compound 0.1 µM", "value": 0.972},
      {"measurement": "relative viability", "setting": "[12]; first compound 0.3162 µM", "value": 1.12},
      {"measurement": "relative viability", "setting": "[12]; first compound 1 µM", "value": 0.871},
      {"measurement": "relative viability", "setting": "[13]; first compound 0.01 µM", "value": 0.688},
      {"measurement": "relative viability", "setting": "[13]; first compound 0.03162 µM", "value": 0.739},
      {"measurement": "relative viability", "setting": "[13]; first compound 0.1 µM", "value": 0.712},
      {"measurement": "relative viability", "setting": "[13]; first compound 0.3162 µM", "value": 1.49},
      {"measurement": "relative viability", "setting": "[13]; first compound 1 µM", "value": 0.19},
      {"measurement": "relative viability", "setting": "[14]; first compound 0.01 µM", "value": 1.14},
      {"measurement": "relative viability", "setting": "[14]; first compound 0.03162 µM", "value": 1.13},
      {"measurement": "relative viability", "setting": "[14]; first compound 0.1 µM", "value": 1.14},
      {"measurement": "relative viability", "setting": "[14]; first compound 0.3162 µM", "value": 1.23},
      {"measurement": "relative viability", "setting": "[14]; first compound 1 µM", "value": 0.87},
      {"measurement": "relative viability", "setting": "[15]; first compound 0.01 µM", "value": 0.744},
      {"measurement": "relative viability", "setting": "[15]; first compound 0.03162 µM", "value": 0.85},
      {"measurement": "relative viability", "setting": "[15]; first compound 0.1 µM", "value": 1.09},
      {"measurement": "relative viability", "setting": "[15]; first compound 0.3162 µM", "value": 0.921},
      {"measurement": "relative viability", "setting": "[15]; first compound 1 µM", "value": 0.843},
      {"measurement": "relative viability", "setting": "[16]; first compound 0.01 µM", "value": 0.547},
      {"measurement": "relative viability", "setting": "[16]; first compound 0.03162 µM", "value": 0.714},
      {"measurement": "relative viability", "setting": "[16]; first compound 0.1 µM", "value": 1.2},
      {"measurement": "relative viability", "setting": "[16]; first compound 0.3162 µM", "value": 0.827},
      {"measurement": "relative viability", "setting": "[16]; first compound 1 µM", "value": 0.618},
      {"measurement": "relative viability", "setting": "[17]; first compound 0.01 µM", "value": 0.912},
      {"measurement": "relative viability", "setting": "[17]; first compound 0.03162 µM", "value": 1.02},
      {"measurement": "relative viability", "setting": "[17]; first compound 0.1 µM", "value": 0.919},
      {"measurement": "relative viability", "setting": "[17]; first compound 0.3162 µM", "value": 0.797},
      {"measurement": "relative viability", "setting": "[17]; first compound 1 µM", "value": 0.656},
      {"measurement": "relative viability", "setting": "[18]; first compound 0.01 µM", "value": 1.18},
      {"measurement": "relative viability", "setting": "[18]; first compound 0.03162 µM", "value": 1.12},
      {"measurement": "relative viability", "setting": "[18]; first compound 0.1 µM", "value": 1.44},
      {"measurement": "relative viability", "setting": "[18]; first compound 0.3162 µM", "value": 1.07},
      {"measurement": "relative viability", "setting": "[18]; first compound 1 µM", "value": 0.809},
      {"measurement": "relative viability", "setting": "[19]; first compound 0.01 µM", "value": 1.27},
      {"measurement": "relative viability", "setting": "[19]; first compound 0.03162 µM", "value": 1.37},
      {"measurement": "relative viability", "setting": "[19]; first compound 0.1 µM", "value": 1.6},
      {"measurement": "relative viability", "setting": "[19]; first compound 0.3162 µM", "value": 1.36},
      {"measurement": "relative viability", "setting": "[19]; first compound 1 µM", "value": 1.22}
    ]}
  ]
}
